Experimental data reported in patent US6111103A, “Diresorcinyl-alkoxy- and -aryloxy-s-triazines” (Ciba Specialty Chemicals Corporation, priority 1998, dated 2000).

How the values were obtained:
[1] = UV/Vis absorption (λmax, ε); format: physicochemical; set-up: ε at λmax: unit not given beside the values
[2] = Solubility in ethanol (25° C.); format: physicochemical

Row | SMILES | UV/Vis λmax ([1]; EtOH) [nm] | ε at λmax ([1]; EtOH) | Solubility in ethanol [2] [%] | UV/Vis λmax ([1]; Dioxan) [nm] | ε at λmax ([1]; Dioxan)
1 | CCCCCCCCCCCCC(CCCCCCCCCC)COc1nc(-c2ccc(O)cc2O)nc(-c2ccc(O)cc2O)n1 (stereo not drawn) [compound 101] | 350 | 34482 |  |  | 
2 | CCCCC(CC)COc1nc(-c2ccc(O)cc2O)nc(-c2ccc(O)cc2O)n1 (stereo not drawn) [compound 102] | 350 | 39177 | 1.50 |  | 
3 | CCCCCCCCC(CCCCCC)COc1nc(-c2ccc(O)cc2O)nc(-c2ccc(O)cc2O)n1 (stereo not drawn) [compound 104] | 351 | 36148 |  |  | 
4 | CCCCCCCCCCCCCCCCCCOc1nc(-c2ccc(O)cc2O)nc(-c2ccc(O)cc2O)n1 [compound 105] | 350 | 31662 |  |  | 
5 | COc1nc(-c2ccc(O)cc2O)nc(-c2ccc(O)cc2O)n1 [compound 107] | 350 | 36949 | 0.08 |  | 
6 | CCOc1nc(-c2ccc(O)cc2O)nc(-c2ccc(O)cc2O)n1 [compound 108] | 350 | 36761 | 0.17 |  | 
7 | CCCCCCCCCCCCC(CCCCCCCCCC)COc1nc(-c2ccc(OC)cc2O)nc(-c2ccc(OC)cc2O)n1 (stereo not drawn) [compound 110] |  |  |  | 347 | 36219
8 | CCCCCCCCC(CCCCCC)COc1nc(-c2ccc(OC)cc2O)nc(-c2ccc(OC)cc2O)n1 (stereo not drawn) [compound 111] | 348 | 34123 |  |  | 
9 | COc1ccc(-c2nc(OC)nc(-c3ccc(OC)cc3O)n2)c(O)c1 [compound 112] |  |  |  | 347 | 37680
